Test results published in patent US10030021B2, “Spirocyclic morphinans and use thereof” (Purdue Pharma L.P., priority 2014, dated 2018).

Target: T1, μ-opioid receptor (Homo sapiens, UniProt P35372)
T1 construct: purchased Perkin Elmer, Shelton, Conn
Assay: μ-opioid receptor [35S]GTPγS functional assay
Type: biochemical
Conditions: for Emax: maximal effect relative to DAMGO
Protocol: [^35S]GTPγS functional assays were conducted using freshly thawed μ-receptor membranes (Perkin Elmer, Shelton, Conn.). Assay reactions were prepared by sequentially adding the following reagents to binding buffer (100 mM NaCl, 10 mM MgCl2, 20 mM HEPES, pH 7.4) on ice (final concentrations indicated): membrane protein (0.026 mg/mL), saponin ([…]), GDP ([…]) and [^35S]GTPγS (0.20 nM; Perkin Elmer, Shelton, Conn.). The prepared membrane solution (190 μl/well) was transferred to 96-shallow well polypropylene plates containing 10 μl of 20× concentrated stock solutions of the agonist [D-Ala^2, N-methyl-Phe^4 Gly-ol^5]-enkephalin (DAMGO) prepared in dimethyl sulfoxide (DMSO). Plates were incubated for 30 min at about 25° C. with shaking. Reactions were terminated by rapid filtration onto 96-well Unifilter GF/B filter plates (Perkin Elmer, Shelton, Conn.) using a 96-well tissue harvester (Perkin Elmer, Shelton, Conn.) followed by three filtration washes with 200 μl of ice-cold wash buffer (10 mM NaH2PO4, 10 mM Na2HPO4, pH 7.4). Filter plates were subsequently dried at 50° C. for 2-3 hours. BetaScint scintillation cocktail (Perkin Elmer, Shelton, Conn.) was added (50 μl/well) and plates were counted using a Packard Top-Count for 1 min/well. Data were analyzed using the sigmoidal dose-response curve fitting functions in GraphPad PRISM v. 3.0, or an in-house function for non-linear, sigmoidal dose-response curve-fitting.
μ GTP EC50 is the concentration of a compound providing 50% of the maximal response for the compound at a μ-opioid receptor.
μ GTP Emax (%) is the maximal effect elicited by a compound relative to the effect elicited by DAMGO, a standard agonist. Generally, the μ GTP Emax (%) value measures the efficacy of a compound to treat or prevent pain or other Conditions.

T1 sequence (P35372 whole entry, species assumed): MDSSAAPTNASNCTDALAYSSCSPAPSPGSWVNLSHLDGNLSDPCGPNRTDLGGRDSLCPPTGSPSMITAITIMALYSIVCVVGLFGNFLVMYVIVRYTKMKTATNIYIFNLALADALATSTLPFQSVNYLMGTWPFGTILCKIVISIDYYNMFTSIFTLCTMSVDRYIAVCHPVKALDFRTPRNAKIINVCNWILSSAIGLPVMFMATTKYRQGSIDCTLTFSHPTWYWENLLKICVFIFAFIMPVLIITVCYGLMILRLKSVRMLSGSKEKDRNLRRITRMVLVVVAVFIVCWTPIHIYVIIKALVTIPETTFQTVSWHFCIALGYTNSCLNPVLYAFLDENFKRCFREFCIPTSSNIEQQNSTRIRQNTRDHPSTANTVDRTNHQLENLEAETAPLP

| Compound | EC50 | Emax |
| --- | --- | --- |
| COc1ccc2c(c1)[C@]13CCN(C)[C@H](C2)[C@@H]1CC[C@@]1(C3)NC(=O)NC1=O [Compound 2, (4S,4b′S,8a′R,9′R)-3′-methoxy-11′-methyl-8′,8a′,9′,10′-tetrahydro-5′H,7′H-spiro[imidazolidine-4,6′-[9,4b](epiminoethano)phenanthrene]-2,5-dione] | 18 ± 1.1 µM | 75.7 ± 0.88% |
| COc1ccc2c(c1)[C@]13CCN(CCN(C)C)[C@H](C2)[C@]1(O)CC[C@@]1(C3)NC(=O)NC1=O [Compound 3, (4S,4b′R,8a′S,9′R)-11′-(2-(dimethylamino)ethyl)-8a′-hydroxy-3′-methoxy-8′,8a′,9′,10′-tetrahydro-5′H,7′H-spiro[imidazolidine-4,6′-[9,4b](epiminoethano)phenanthrene]-2,5-dione] | > 20 µM | -0.8% |
| COc1ccc2c(c1)[C@]13CCN(CCCN(C)C)[C@H](C2)[C@]1(O)CC[C@@]1(C3)NC(=O)NC1=O [Compound 4, (4S,4b′R,8a′S,9′R)-11′-(3-(dimethylamino)propyl)-8a′-hydroxy-3′-methoxy-8′,8a′,9′,10′-tetrahydro-5′H,7′H-spiro[imidazolidine-4,6′-[9,4b](epiminoethano)phenanthrene]-2,5-dione] | > 20 µM | -1 ± 0.003% |
| CCN1C(=O)N(CC)[C@]2(CC[C@@]3(O)[C@H]4Cc5ccc(OC)cc5[C@@]3(CCN4CCN(C)C)C2)C1=O [Compound 8, (4S,4b′R,8a′S,9′R)-11′-(2-(dimethylamino)ethyl)-1,3-diethyl-8a′-hydroxy-3′-methoxy-8′,8a′,9′,10′-tetrahydro-5′H,7′H-spiro[imidazolidine-4,6′-[9,4b](epiminoethano)phenanthrene]-2,5-dione] | > 20 µM | 1% |
| COc1ccc2c(c1)[C@]13CCN(CCCN(C)C)[C@H](C2)[C@]1(O)CC[C@]1(C3)C(=O)N(CC2CC2)C(=O)N1CC1CC1 [Compound 13, (4S,4b′R,8a′S,9′R)-1,3-bis(cyclopropylmethyl)-11′-(3-(dimethylamino)propyl)-8a′-hydroxy-3′-methoxy-8′,8a′,9′,10′-tetrahydro-5′H,7′H-spiro[imidazolidine-4,6′-[9,4b]-(epiminoethano)phenanthrene]-2,5-dione] | > 20 µM | 1% |
| CCN1C(=O)N(CC)[C@]2(CC[C@@]3(O)[C@H]4Cc5ccc(OC)cc5[C@@]3(CCN4CCCN(C)C)C2)C1=O [Compound 14, (4S,4b′R,8a′S,9′R)-11′-(3-(dimethylamino)propyl)-1,3-diethyl-8a′-hydroxy-3′-methoxy-8′,8a′,9′,10′-tetrahydro-5′H,7′H-spiro[imidazolidine-4,6′-[9,4b](epiminoethano)-phenanthrene]-2,5-dione] | > 20 µM | 1% |
| COc1ccc2c(c1)[C@]13CCN(CCN(C)C)[C@H](C2)[C@]1(O)CC[C@]1(C3)C(=O)N(CC2CC2)C(=O)N1CC1CC1 [Compound 15, (4S,4b′R,8a′S,9′R)-1,3-bis(cyclopropylmethyl)-11′-(2-(dimethylamino)ethyl)-8a′-hydroxy-3′-methoxy-8′,8a′,9′,10′-tetrahydro-5′H,7′H-spiro[imidazolidine-4,6′-[9,4b]-(epiminoethano)phenanthrene]-2,5-dione] | > 20 µM | 1% |
| COc1ccc2c(c1)[C@]13CCN[C@H](C2)[C@]1(O)CC[C@]1(C3)C(=O)N(CC2CC2)C(=O)N1CC1CC1 [Compound 17, (4S,4b′R,8a′S,9′R)-1,3-bis(cyclopropylmethyl)-8a′-hydroxy-3′-methoxy-8′,8a′,9′,10′-tetrahydro-5′H,7′H-spiro[imidazolidine-4,6′-[9,4b](epiminoethano)phenanthrene]-2,5-dione] | > 20 µM | 26 ± 5.51% |
| CCN1C(=O)N(CC)[C@]2(CC[C@@]3(O)[C@H]4Cc5ccc(OC)cc5[C@@]3(CCN4)C2)C1=O [Compound 18, (4S,4b′R,8a′S,9′R)-1,3-diethyl-8a′-hydroxy-3′-methoxy-8′,8a′,9′,10′-tetrahydro-5′H,7′H-spiro[imidazolidine-4,6′-[9,4b](epiminoethano)phenanthrene]-2,5-dione] | > 20 µM | 35.7 ± 1.2% |
| CN1CC[C@]23C[C@]4(CC[C@H]2[C@H]1Cc1ccc(O)cc13)NC(=O)NC4=O [Compound 19, (4S,4b′S,8a′R,9′R)-3′-hydroxy-11′-methyl-8′,8a′,9′,10′-tetrahydro-5′H,7′H-spiro[imidazolidine-4,6′-[9,4b](epiminoethano)phenanthrene]-2,5-dione] | 0.097 ± 0.0115 µM | 54.6 ± 3.04% |
| CCN1C(=O)N(CC)[C@]2(CC[C@@]3(O)[C@H]4Cc5ccc(O)cc5[C@@]3(CCN4)C2)C1=O [Compound 20, (4S,4b′R,8a′S,9′R)-1,3-diethyl-3′,8a′-dihydroxy-8′,8a′,9′,10′-tetrahydro-5′H,7′H-spiro[imidazolidine-4,6′-[9,4b](epiminoethano)phenanthrene]-2,5-dione] | 1.88 ± 0.252 µM | 28 ± 1.53% |
| O=C1NC(=O)[C@@]2(CC[C@@]3(O)[C@H]4Cc5ccc(O)cc5[C@@]3(CCN4)C2)N1 [Compound 22, (4S,4b′R,8a′S,9′R)-3′,8a′-dihydroxy-8′,8a′,9′,10′-tetrahydro-5′H,7′H-spiro[imidazolidine-4,6′-[9,4b](epiminoethano)phenanthrene]-2,5-dione] | 2.85 ± 0.216 µM | 71.7 ± 2.6% |
| O=C1N(CC2CC2)C(=O)[C@@]2(CC[C@@]3(O)[C@H]4Cc5ccc(O)cc5[C@@]3(CCN4)C2)N1CC1CC1 [Compound 23, (4S,4b′R,8a′S,9′R)-1,3-bis(cyclopropylmethyl)-3′,8a′-dihydroxy-8′,8a′,9′,10′-tetrahydro-5′H,7′H-spiro[imidazolidine-4,6′-[9,4b](epiminoethano)phenanthrene]-2,5-dione] | 3.79 ± 0.287 µM | 15.7 ± 0.33% |
| CCN1C(=O)N(CC)[C@]2(CC[C@@]3(O)[C@H]4Cc5ccc(O)cc5[C@@]3(CCN4CCc3ccccc3)C2)C1=O [Compound 24, (4S,4b′R,8a′S,9′R)-1,3-diethyl-3′,8a′-dihydroxy-11′-phenethyl-8′,8a′,9′,10′-tetrahydro-5′H,7′H-spiro[imidazolidine-4,6′-[9,4b](epiminoethano)phenanthrene]-2,5-dione] | 0.073 ± 0.0197 µM | 65.3 ± 4.26% |
| CN(C)CCN1CC[C@]23C[C@@]4(CC[C@@]2(O)[C@H]1Cc1ccc(O)cc13)C(=O)N(CC1CC1)C(=O)N4CC1CC1 [Compound 25, (4S,4b′R,8a′S,9′R)-1,3-bis(cyclopropylmethyl)-11′-(2-(dimethylamino)ethyl)-3′,8a′-dihydroxy-8′,8a′,9′,10′-tetrahydro-5′H,7′H-spiro[imidazolidine-4,6′-[9,4b](epiminoethano)-phenanthrene]-2,5-dione] | > 20 µM | 1% |
| CCN1C(=O)N(CC)[C@]2(CC[C@@]3(O)[C@H]4Cc5ccc(O)cc5[C@@]3(CCN4CCN(C)C)C2)C1=O [Compound 26, (4S,4b′R,8a′S,9′R)-11′-(2-(dimethylamino)ethyl)-1,3-diethyl-3′,8a′-dihydroxy-8′,8a′,9′,10′-tetrahydro-5′H,7′H-spiro[imidazolidine-4,6′-[9,4b](epiminoethano)phenanthrene]-2,5-dione] | > 20 µM | 0.5% |
| CCN1C(=O)N(CC)[C@]2(CC[C@@]3(O)[C@H]4Cc5ccc(O)cc5[C@@]3(CCN4CCCN(C)C)C2)C1=O [Compound 27, (4S,4b′R,8a′S,9′R)-11′-(3-(dimethylamino)propyl)-1,3-diethyl-3′,8a′-dihydroxy-8′,8a′,9′,10′-tetrahydro-5′H,7′H-spiro[imidazolidine-4,6′-[9,4b](epiminoethano)phenanthrene]-2,5-dione] | > 20 µM | 1% |
| CN(C)CCCN1CC[C@]23C[C@@]4(CC[C@@]2(O)[C@H]1Cc1ccc(O)cc13)C(=O)N(CC1CC1)C(=O)N4CC1CC1 [Compound 28, (4S,4b′R,8a′S,9′R)-1,3-bis(cyclopropylmethyl)-11′-(3-(dimethylamino)propyl)-3′,8a′-dihydroxy-8′,8a′,9′,10′-tetrahydro-5′H,7′H-spiro[imidazolidine-4,6′-[9,4b](epiminoethano)-phenanthrene]-2,5-dione] | > 20 µM | 1.36% |
| CN(C)CCN1CC[C@]23C[C@]4(CC[C@@]2(O)[C@H]1Cc1ccc(O)cc13)NC(=O)NC4=O [Compound 29, (4S,4b′R,8a′S,9′R)-11′-(2-(dimethylamino)ethyl)-3′,8a′-dihydroxy-8′,8a′,9′,10′-tetrahydro-5′H,7′H-spiro[imidazolidine-4,6′-[9,4b](epiminoethano)phenanthrene]-2,5-dione] | 3.92 ± 0.571 µM | 23.4 ± 1.68% |
| CN(C)CCCN1CC[C@]23C[C@]4(CC[C@@]2(O)[C@H]1Cc1ccc(O)cc13)NC(=O)NC4=O [Compound 30, (4S,4b′R,8a′S,9′R)-11′-(3-(dimethylamino)propyl)-3′,8a′-dihydroxy-8′,8a′,9′,10′-tetrahydro-5′H,7′H-spiro[imidazolidine-4,6′-[9,4b](epiminoethano)phenanthrene]-2,5-dione] | > 20 µM | 1% |
